Experimental data reported in patent US20220242894A1, “Ruthenium (II) Complexes and Their Use as AntiCancer Agents” (Paris Sciences et Lettres, priority 2019, published 2022).
Where two headings read alike, the source gives them in different places.

Tests used:
[1] = test system: CT-26 (mouse colon adenocarcinoma); assay: Cytotoxicity, fluorometric cell viability assay (resazurin), CT-26; assay type: cell-based; conditions: read-out: IC50 (μM) CT-26
Procedure: (§1) HeLa and CT-26 cell lines were cultured in DMEM media (Gibco) supplemented with 10% of fetal calf serum (Gibco). CT-26 LUC cell line was cultured in DMEM media (Gibco) supplemented with 10% of fetal calf serum (Gibco) and 1% Genticin. RPE-1 cell line was cultured in DMEM/F-12 media (Gibco) supplemented with 10% of fetal calf serum. […] The resistance of A2780 cis was maintained by cisplatin treatment (1 μM) for one week every month. […] U87 cell line was cultured in MEM media (Gibco) supplemented with 10% of fetal calf serum (Gibco) and 1% of non-essential amino acid mixture (Gibco). Cell lines were complemented with 100 U/ml penicillin-streptomycin mixture (Gibco) and maintained in humidified atmosphere at 37° C. and 5% of CO2.
(§2) Cytotoxicity of the tested Ru compounds according to the present invention was assessed by a fluorometric cell viability assay using Resazurin (ACROS Organics). […] After 24 h, cells were treated with increasing concentrations of the compounds. Compounds dilutions were prepared as follows: 2.5 mM stock in DMSO was further diluted to 100 μM with media and then filtrated. After 48 h incubation, medium was removed, and 100 μl of complete medium containing resazurin (0.2 mg/ml final concentration) was added. […] IC50 values were then calculated using GraphPad Prism software.

[2] = test system: A2780 (human ovarian carcinoma); assay: Cytotoxicity, fluorometric cell viability assay (resazurin), A2780; assay type: cell-based; conditions: read-out: IC50 (μM) A2780
Procedure: as §1, §2

[3] = test system: A2780 ADR (human doxorubicin resistant ovarian carcinoma); assay: Cytotoxicity, fluorometric cell viability assay (resazurin), A2780 ADR; assay type: cell-based
Procedure: as §1, §2

[4] = test system: CT-26 LUC (mouse colon adenocarcinoma stably expressing luciferase); assay: Cytotoxicity, fluorometric cell viability assay (resazurin), CT-26 LUC; assay type: cell-based; conditions: read-out: IC50 (μM) CT-26 luc
Procedure: as §1, §2

[5] = test system: RPE-1 (normal retina pigmented epithelial); assay: Cytotoxicity, fluorometric cell viability assay (resazurin), RPE-1; assay type: cell-based; conditions: read-out: IC50 (μM) RPE-1
Procedure: as §1, §2

[6] = test system: A2780 cis (human cisplatin resistant ovarian carcinoma); assay: Cytotoxicity, fluorometric cell viability assay (resazurin), A2780 cis; assay type: cell-based; conditions: read-out: IC50 (μM) A2780 cis
Procedure: as §1, §2

HeLa (human cervical) = assay: Cytotoxicity, fluorometric cell viability assay (resazurin), HeLa; assay type: cell-based; conditions: read-out: IC50 (μM) HeLa
Procedure: as §1, §2

solid Ehrlich tumour [7] = assay: Survival of mice bearing solid Ehrlich tumour; assay type: in vivo; conditions: 5 mg/kg i.p. on days 1 and 7, tumour-bearing NMRI mice
Text: A solid Ehrlich tumour was purchased from the Research Institute for Pharmacy and Biochemistry (VUFB) in Prague, and then maintained in NMRI mice by periodical transplantations. […] On the tenth day, half of the mice were sacrificed, and their tumours were weighed. The remaining animals were left in order to observe their survival.
One-Way Analysis of Variance with post-hoc Dunnetts's multiple comparison test was used to detect differences in tumour weight. Kaplan-Meier curves (FIG. 4) and logrank tests were used to compare survival times in groups. Here, the level of significance was α=0.05.

solid Ehrlich tumour [8] = assay: Tumour weight, solid Ehrlich tumour, day 10; conditions: 5 mg/kg i.p. on days 1 and 7, measured on day 10
Text: Values are the means±SEM (n=7 in each group).
A solid Ehrlich tumour was purchased from the Research Institute for Pharmacy and Biochemistry (VUFB) in Prague, and then maintained in NMRI mice by periodical transplantations. […] On the tenth day, half of the mice were sacrificed, and their tumours were weighed.
One-Way Analysis of Variance with post-hoc Dunnetts's multiple comparison test was used to detect differences in tumour weight.

[9] = Encapsulation in polysorbate 80 (film rehydration); assay type: physicochemical; conditions: in 50 mg/mL of polysorbate 80 in PBS, after 0.20 μm filtration
Procedure: The solvent was removed by rotary evaporation at 40° C. The red film was then resuspended in PBS (2 mL) at room temperature. The solution was finally sterile filtered on a 0.20 μm nylon membrane (Corning© 431224) to yield a clear red solution.
50 μL of the sample was diluted in 100 μL of acetonitrile and the absorbance was recorded at 480 nm in 96 wells plates from Corning© (Fisher Scientific 15329740) using a SpectraMax M5 microplate Reader.
Encapsulation efficiency was calculated by comparing the absorbance of the solution before and after filtration using the following equation.
To ensure its repeatability, the procedure was performed in triplicate.

[10] = test system: glycolysis in CT-26 cells; assay: Seahorse glycolytic stress test; assay type: cell-based, mouse; conditions: CT-26, 1 μM, 24 h incubation
Procedure: (§3) The preference of compound 1 to accumulate in the nucleus and mitochondria in HeLa cells inspired further studies on metabolic pathways that could be affected by the compound. For this purpose, Seahorse XF Analyzer was used. […] The effect on the other metabolic pathways, i.e. glycolysis and the possible metabolic modulation of the three primary fuel pathways, i.e. glucose, glutamine and fatty acid were then examined.
CT-26 cells were seeded in Seahorse XFe96 well plates at a density of 30,000 cells/well in 80 μL. […] After 24 h of incubation, the regular media was removed and the cells were washed thrice using bicarbonate, glucose and serum free DMEM, supplemented 1% glutamine and 1% sodium pyruvate and incubated in a non-CO2 incubator at 37° C. for an hour. Glycolytic stress test was run using glucose, 10 mM, Oligomycin, 1 μM and 2-Deoxyglucose, 50 mM in ports A, B and C respectively using Seahorse XFe96 Extracellular Flux Analyzer.

HeLa cells [11] = assay: Annexin V/PI assay (cell death mechanism); conditions: 10 μM
Text: For this experiment, Annexin V and PI staining method were utilised on HeLa cells.^15 Staurosporin, a known inducer of apoptosis, was used as a positive control.

[12] = test system: mitochondrial metabolism (oxidative phosphorylation) in CT-26 cell line; assay: Seahorse Mitostress test; assay type: cell-based, mouse; conditions: CT-26, 1 μM, 24 h incubation
Procedure: as §3
CT-26 cells were seeded in Seahorse XFe96 well plates at a density of 30,000 cells/well in 80 μL. […] After 24 h of incubation, the regular media was removed and the cells were washed thrice using bicarbonate and serum free DMEM, supplemented with glucose, 1.8 mg/mL; 1% glutamine and 1% sodium pyruvate and incubated in a non-CO2 incubator at 37° C. for 1 h. Mitostress assay was run using Oligomycin, 1 μM, FCCP 1 μM and mixture of Antimycin-A/Rotenone 1 μM each in ports A, B and C respectively using Seahorse XFe96 Extracellular Flux Analyzer.

[13] = test system: MRC-5 (normal lung fibroblasts); assay: Ruthenium cellular accumulation by ICP-MS, MRC5
Procedure: All the fractions (mitochondria, lysosomes and nucleus) were isolated from the same cellular sample for direct comparative purposes. The supernatant phases discarded during the isolation of nuclei, lysosomes and mitochondria procedures were collected and formed the “residual” fraction. An aliquot of crude lysate after homogenization, nuclear, mitochondrial (pellet lysed via freeze and thaw cycles followed by 20 minutes incubation in ultrasonic bath), lysosomal and residual fraction was each used for protein quantification using the Bradford method. The isolated samples were then lyophilized on an Alpha 2-4 LD plus (CHRIST). The resulting samples underwent chemical digestion with 10 mL of a 2% nitrohydrochloric acid solution for 24 h. The resulting suspensions were filtered on 0.20 μm non-pyrogenic sterile Filtropur filters (Sarstedt) and the obtained samples were injected in ICP-MS.
Ruthenium content of the samples was determined by means of a 7-step serial dilution in the range between 0 and 300 ppb in Ru (R>0.99) with a background equivalent concentration of BEC: 6.3 ppt and a detection limit of DL: 17 ppt. […] A solution of Indium (500 ppb) and Tungsten (500 ppb) was used as internal standard.

HeLa cells [14] = assay: Ruthenium cellular uptake and subcellular distribution by ICP-MS, HeLa; assay type: cell-based, human; conditions: 5 μM
Procedure: All the treatments were set up at the same concentration for comparative purposes. The medium was then removed, the cells washed with PBS and trypsinized. […] The organelles were then isolated via differential centrifugation. To separate lysosomes, a Lysosome Isolation Kit (Cat. Nr: LYSISO1, Sigma Aldrich) as well as the manufacturer procedure with minor modification was used. Briefly, the collected pellets were redissolved in 2.0 ml of extraction buffer added with proteases cocktail (delivered with the kit) and incubated for 15 min on ice. The samples were then homogenized with a pre-chilled dounce homogenizer (7 ml, tight pestle A, 22 strokes) and centrifuged at 1000 g for 10 min at 4° C. […] These steps of the isolation procedure were monitored under phase contrast microscope on Menzel-Glaser coverslips (Olympus IX81 microscope).
The supernatant was transferred in a fresh tube and centrifuged at 14000 g for 30 min at 4° C. […] The intact lysosomal content was proofed with Neutral-Red Reagent (delivered in the kit) with dual-wavelength absorbance mode at 460 and 510 nm over a kinetic of 3 minutes in a Spectramax M5 microplate reader (Molecular Devices). […]
Ruthenium content of the samples was determined by means of a 7-step serial dilution in the range between 0 and 300 ppb in Ru (R>0.99) with a background equivalent concentration of BEC: 6.3 ppt and a detection limit of DL: 17 ppt. […]

[15] = Dose-finding study, maximum tolerated dose; conditions: healthy mice, i.p., weight loss limit 10% over 14 days
[16] = test system: fuel pathways (glucose, glutamine, fatty acid) in CT-26 cells; assay: Seahorse fuel flex assay; assay type: cell-based, mouse; conditions: CT-26, 1 μM, 24 h incubation
Procedure: as §3
CT-26 cells were seeded in Seahorse XFe96 well plates at a density of 30,000 cells/well in 80 μL. […] After 24 h of incubation, the regular media was removed and the cells were washed thrice using bicarbonate, and serum free DMEM, supplemented with 1.8 mg/mL glucose, 1% glutamine and 1% sodium pyruvate and incubated in a non-CO2 incubator at 37° C. for an hour. Fuel flex assay for the different fuel pathways viz. glucose, glutamine and fatty acid was studied by measuring the basal oxygen consumption rates and that after addition of the inhibitor of the target pathway in port A and a mixture of the inhibitors of the other two pathways in port B. This gave a measure of the dependency of the cells on a fuel pathway. To study the capacity of a certain fuel pathway, the sequence of addition of the inhibitors was reversed. In port A was added the mixture of inhibitors for the other pathways and in port B was added the inhibitor for the target pathway. […]

[17] = Mus musculus, CT26, CT-26, 48 h incubation
[18] = Homo sapiens, A2780, 48 h incubation
[19] = Homo sapiens, A2780 ADR, 48 h; read-out: IC50 (μM) A2780 ADR
[20] = Mus musculus, CT26, CT-26 luc, 48 h incubation
[21] = Homo sapiens, RPE-1 normal cells, 48 h incubation
[22] = Homo sapiens, A2780cis, A2780 cis (cisplatin resistant), 48 h incubation
[23] = A2780 ADR (doxorubicin resistant), 48 h incubation; read-out: IC50 (μM) A2780 ADR
[24] = RPE-1 normal cells, 48 h incubation
[25] = A2780 cis (cisplatin resistant), 48 h incubation

Molecule | IC50 [1, 17] [µM] | IC50 [2, 18] [µM] | IC50 [3, 19] [µM] | IC50 [4, 20] [µM] | IC50 [5, 21] [µM] | IC50 [6, 22] [µM] | IC50 (HeLa (human cervical); Homo sapiens, 48 h incubation) [µM] | also measured
COc1cccc(O)c1O [3-methoxycatechol] | 45.7 ± 4.21 | 18.7 ± 1.17 | 30.1 ± 1.35 | 36.4 ± 6.28 | > 100 | 36.5 ± 1.94 | 56.2 ± 4.18 | 
Cc1cccc(O)c1O [3-methylcatechol] | 17.5 ± 0.73 | 9.99 ± 1.26 | 2.71 ± 0.82 | 12.1 ± 1.4 | > 100 | 14.7 ± 0.69 | > 100 | 
Cc1ccc(O)c(O)c1 [4-methylcatechol] | 34.4 ± 1.41 | 15.2 ± 1 | 29.3 ± 1.96 | 33.3 ± 3.4 | > 100 | 34.6 ± 1.49 | > 100 | 
O=[N+]([O-])c1ccc(O)c(O)c1 [4-nitrocatechol] | 17.5 ± 1.02 | 30.9 ± 2.05 | 61.5 ± 3.63 | 15.3 ± 1 | 45 ± 19 | > 100 | > 100 | 
CC(C)(C)c1ccc(O)c(O)c1 [4-tertbutylcatechol] | 9.94 ± 0.63 | 9.14 ± 0.7 | 12.9 ± 1.2 | 9.72 ± 0.67 | 55.1 ± 4.64 | 14.6 ± 0.81 | 93.1 ± 9.8 | 
N.N.[Cl][Pt][Cl] [Cisplatin] |  |  |  |  |  |  |  | IC50 ([1]; CT-26, 48 h incubation): 2.6 ± 0.18 µM; IC50 ([2]; A2780, 48 h incubation): 4 ± 0.76 µM; IC50 [3, 23]: 8.32 ± 0.71 µM; IC50 ([4]; CT-26 luc, 48 h incubation): 2.42 ± 0.23 µM; IC50 [5, 24]: 30.2 ± 5.11 µM; IC50 [6, 25]: 18.3 ± 2.92 µM; geometric mean of overall survival (solid Ehrlich tumour [7]): 33.7 days; effect on tumour growth (tumour weight) (solid Ehrlich tumour [8]): significant inhibitory effect; IC50 (HeLa (human cervical); 48 h incubation): 9.28 ± 0.2 µM
COc1cccc2c1C(=O)c1c(O)c3c(c(O)c1C2=O)C[C@@](O)(C(=O)CO)C[C@@H]3O[C@H]1C[C@H](N)[C@H](O)[C@H](C)O1 [Doxorubicin] | 0.082 ± 0.003 | 0.19 ± 0.03 | 5.94 ± 0.58 |  | 0.89 ± 0.17 | 0.54 ± 0.04 | 0.34 ± 0.02 | 
Cc1occc(=O)c1O [Maltol, 3-Hydroxy-2-methyl-4H-pyran-4-one] | > 100 | > 100 | > 100 | > 100 | > 100 | > 100 | 74 ± 14.6 | 
[Cl-].[Cl-].[Ru+2].c1ccc(-c2ccnc3c2ccc2c(-c4ccccc4)ccnc23)cc1.c1ccc(-c2ccnc3c2ccc2c(-c4ccccc4)ccnc23)cc1 [Ru(DIP)2Cl2] |  |  |  |  |  |  |  | IC50 ([1]; CT-26, 48 h incubation): 9.2 ± 1.22 µM; IC50 ([2]; A2780, 48 h incubation): 4.69 ± 0.14 µM; IC50 [3, 23]: 78.3 ± 4.9 µM; IC50 ([4]; CT-26 luc, 48 h incubation): 6.65 ± 0.5 µM; IC50 [5, 24]: 3.13 ± 0.07 µM; IC50 [6, 25]: 6.36 ± 0.57 µM; IC50 (HeLa (human cervical); 48 h incubation): 15 ± 0.4 µM
Oc1c(O)c(Br)c(Br)c(Br)c1Br [Tetrabromocatechol] |  |  |  |  |  |  |  | IC50 ([1]; Mus musculus, CT26, 48 h): 5.53 ± 0.37 µM; IC50 ([2]; Homo sapiens, A2780, 48 h): 8.75 ± 0.2 µM; IC50 ([3]; Homo sapiens, A2780 ADR, 48 h, read-out: IC50 (μM) A2780 ADR): 14.4 ± 1.18 µM; IC50 ([4]; Mus musculus, CT26, 48 h): 3.8 ± 0.34 µM; IC50 ([5]; Homo sapiens, RPE-1, 48 h): 13.5 ± 1.7 µM; IC50 ([6]; Homo sapiens, A2780cis, 48 h): 13.6 ± 0.88 µM; IC50 (HeLa (human cervical); Homo sapiens, 48 h): 29.9 ± 1.6 µM
Oc1ccccc1O [catechol] | 16 | 22.4 ± 5.83 | > 100 | 11.5 ± 0.4 | > 100 | 56 ± 9.46 | > 100 | 
Ru(DIP)2(4-Nitrocat) [Compound 8] |  |  |  |  |  |  |  | IC50 ([1]; CT-26, 48 h incubation): 7.61 ± 0.11 µM; IC50 ([2]; A2780, 48 h incubation): 12.4 ± 0.8 µM; IC50 [3, 23]: 18.6 ± 2.02 µM; IC50 ([4]; CT-26 luc, 48 h incubation): 9.01 ± 0.19 µM; IC50 [5, 24]: 16.6 ± 0.98 µM; IC50 [6, 25]: 16.4 ± 2.04 µM; IC50 (HeLa (human cervical); 48 h incubation): 10 ± 0.44 µM
[Ru(DIP)2(3-Methoxysq)](PF6) [Compound 4] |  |  |  |  |  |  |  | concentration dissolved [9]: 840 ± 60 µg/mL
[Ru(DIP)2(Sq)](PF6) [Compound 1] |  |  |  |  |  |  |  | glycolysis of the cells [10]: not affected; induction of apoptosis/necrosis (HeLa cells [11]; 30 min after treatment): induces apoptosis; type of cell death (HeLa cells [11]; 4 h or 24 h incubation): apoptosis as a main type of the cell death; ATP production [12]: inhibited; mitochondrial respiration [12]: severely impaired; compound taken up by healthy cells [13]: less than 25%; subcellular accumulation of ruthenium (HeLa cells [14]; 2 h, fractionated): preferential accumulation inside the nucleus; cellular uptake (internalization) (HeLa cells [14]; after 2 h): Near complete internalization; maximum tolerated dose (MTD) [15]: 15 mg/kg of body weight; effect on the 3 primary fuel pathways [16]: no direct effect
[Ru(DIP)2(Tetrabromocat)] [Compound 5] |  |  |  |  |  |  |  | IC50 ([1]; CT-26, 48 h incubation): 10.5 ± 0.5 µM; IC50 ([2]; A2780, 48 h incubation): 10.2 ± 0.14 µM; IC50 [3, 23]: 15 ± 0.75 µM; IC50 ([4]; CT-26 luc, 48 h incubation): 11.6 ± 0.7 µM; IC50 [5, 24]: 23.2 ± 2.5 µM; IC50 [6, 25]: 17.2 ± 1.4 µM; IC50 (HeLa (human cervical); 48 h incubation): 10.5 ± 0.25 µM
